Molecules are shown by their SMILES. Like-named read-outs stand apart in the source and are kept apart here.

The values that follow come from article PMC10555500, “Evaluation of the Antiproliferative Properties of CpRu Complexes Containing N-Methylated Triazaphosphaadamantane Derivatives” (Bioinorganic Chemistry and Applications, 2023).

Data set [1] concerns MDA-MB-231 breast cancer cells. Also on record: method as in doi:10.1021/acsomega.8b02849, PMID 31241925. Conditions: positive control; ref [44], [45]; cited from earlier work.
The subject of data set [2] is normal human fibroblasts (HDF). Also on record: method as in doi:10.1021/acsomega.8b02849, PMID 31241925. Particulars: positive control; ref [44], [45]; cited from earlier work.
Data set [3] relates to MCF-7 breast cancer cells. Further details: method as in doi:10.1021/acsomega.8b02849, PMID 31241925. Conditions: positive control; ref [44], [45]; cited from earlier work.
In data set [4] the target is human serum albumin (HSA) (Homo sapiens, UniProt P02768). Put plainly: Binding to human serum albumin by steady-state and time-resolved Trp214 fluorescence. How it is done:
The stock solutions of HSA were freshly prepared for each experiment by gently dissolving protein in PBS pH 7.4 (tablets from Fisher) for 1 hour to allow protein to completely hydrate. The concentration of the protein in the stock solutions was determined by spectrophotometry using the molar absorption coefficient at 280 nm ε280(HSA) = 36,850 M^−1·cm^−1 [38].
In each essay, all spectroscopic measurements were carried out on individually prepared samples to ensure the same preincubation time at (37.0 ± 0.1)°C, the same % of DMSO in the final samples, and the same exposure to excitation light and to avoid the need for dilution corrections. Moreover, for a direct titration protocol, a highly concentrated stock solution of the compounds in the buffer would be required, which would raise solubility issues. Dimethylsulfoxide (DMSO, from Fisher) was used to prepare concentrated stock solutions of each complex, followed by appropriate dilution to obtain the desired concentration. The DMSO content was kept at 2% (v/v) in PBS pH 7.4 in all samples. Dilutions were carried out immediately before sample preparation.
Fluorescence measurements were performed at 25.0 ± 0.1°C. The final protein concentration in the individually prepared samples (3.72 to 5 μM) was kept constant in each assay, and the complex concentration was varied to obtain desired HSA: Ru-complex molar ratios ranging from 1 : 0.25 to 1 : 10. A control sample containing the same amount of protein and final DMSO content and with no complex was also prepared for each experiment. Appropriate blank samples with no protein but with the same complex concentrations were prepared as well for background correction.
The steady-state fluorescence intensity was measured with excitation at 295 nm, and emission spectra were collected with bandwidths of 4 nm for both excitation and emission. For Stern–Volmer plots, the fluorescence intensity with emission at 340 nm was selected because it is near the maximum emission wavelength (so the sensitivity is close to maximum), but it is further to red in relation to the water Raman scattering peak. These values were corrected for the absorption and emission inner filter effects using the absorbance recorded for each sample at the excitation and emission wavelengths used for the steady-state quenching analysis. For time-resolved fluorescence measurements, the single-photon-counting technique was used with nanoLED N-280 (Horiba Jobin Yvon) as the pulsed excitation source (280 nm) and with emission collected at 350 nm (13 nm emission bandwidth), eliminating the contribution of the emission by tyrosine residues.
The experimental fluorescence intensity decays of HSA in buffer solution can be described by a sum of exponentials:(1) It=∑i=1npiexp−t/τi, where pi and τi are the pre-exponential factors and lifetime of component i, respectively. The amplitude or normalized pre-exponential of each lifetime component αi is pi/Σipi with Σiαi = 1. Fluorescence decays were analysed by an iterative deconvolution method using the TRFA Data Processor software (version 1.4; Minsk, Belarus), and the instrument response function was obtained using scattering by a colloidal suspension of silica (Ludox®, Sigma-Aldrich) diluted in water. Criteria for judging the quality of the fit were reduced χ^2 close to 1 and a random distribution of weighted residuals and residual autocorrelation.
To evaluate changes in the quantum yield by processes affecting the fluorescence lifetimes of HSA, the amplitude-weighted mean fluorescence lifetime ( τ¯ ) was calculated using the following equation:(2) τ¯=∑i=1nαiτi.
The stock solutions of HSA were freshly prepared for each experiment by gently dissolving the protein in PBS pH 7.4 (tablets from Fisher) for 1 hour to allow the protein to completely hydrate. The concentration of protein in the stock solutions was determined by spectrophotometry using the molar absorption coefficient at 280 nm ε280(HSA) = 36,850 M^−1 cm^−1.[8] […]

Data set [5] relates to MCF-7 breast cancer cells. Description: MTT cytotoxicity assay, MCF-7 cells. Conditions: 24 h incubation, average of at least three experiments (±SD). The data set is classed as cell-based, human. The method, then:
(§1) The MDA-MB-231 and MCF-7 human breast cancer cells were purchased from ATCC. The MDA-MB-231 and MCF-7 cells were grown in Dulbecco's modified Eagles' medium (DMEM high glucose) (Capricorn Scientific) at 37°C in 5% CO2 supplemented with 10% fetal bovine serum (Capricorn Scientific). HDF cells were purchased from Merck and were grown in the fibroblast growth medium. All cells were adherent in monolayers and, upon confluence, were washed with phosphate buffer saline (PBS) and harvested by digestion with trypsin-EDTA 0.05% (v/v). The cells were suspended and transferred into new, sterile, culture flasks for maintenance or seeded in sterile test microplates for different assays. All cells were manipulated under aseptic conditions in a flow chamber.
The cells were adherent in monolayers and, upon confluence, were harvested by digestion with trypsin. The cytotoxicity of the complexes against the tumour cells was assessed using the colorimetric assay MTT […], which evaluates the metabolic activity of viable cells. This assay measures the conversion of yellow tetrazolium into purple formazan by an active mitochondrial dehydrogenase in living cells. For this purpose, the cells (10–20 × 10^3 in 200 μL of the medium) were seeded into 96-well plates and incubated in a 5% CO2 incubator at 37°C. The cells were settled for 24 h followed by the addition of a dilution series of the complexes in a medium (200 μL). The complexes were first solubilized in 100% DMSO, given a 10 mM stock solution, and then in a medium within the concentration range of 0.1–100 µM. […] The cellular viability was evaluated by measuring the absorbance at 570 nm by using a microplate spectrophotometer. […]
The cells were adherent in monolayers and, upon confluency, were harvested by digestion with trypsin. The cytotoxicity of the complexes against the tumour cells was assessed using the colorimetric assay MTT […], which evaluate the metabolic activity of viable cells. […]
(In general: Tetrazolium dyes change colour on reduction, which living cells bring about.)

Data set [6] relates to MDA-MB-231 breast cancer cells. Put plainly: MTT cytotoxicity assay, MDA-MB-231 cells. It counts as cell-based, human. Particulars: 24 h incubation, MTT, average of at least three experiments (±SD). The method, then:
as §1
(§2) The cells were adherent in monolayers and, upon confluence, were harvested by digestion with trypsin. The cytotoxicity of the complexes against the tumour cells was assessed using the colorimetric assay MTT […], which evaluates the metabolic activity of viable cells. This assay measures the conversion of yellow tetrazolium into purple formazan by an active mitochondrial dehydrogenase in living cells. For this purpose, the cells (10–20 × 10^3 in 200 μL of the medium) were seeded into 96-well plates and incubated in a 5% CO2 incubator at 37°C. The cells were settled for 24 h followed by the addition of a dilution series of the complexes in a medium (200 μL). The complexes were first solubilized in 100% DMSO, given a 10 mM stock solution, and then in a medium within the concentration range of 0.1–100 µM. […] After 24 h of incubation, the treatment solutions were removed by aspiration, and MTT solution (200 μL, 0.5 mg·mL^−1 in PBS) was added to each well. After 3 h at 37°C/5% CO2, the solution was removed, and the purple formazan crystals formed inside the cells were dissolved in DMSO (200 μL) by thorough shaking. The cellular viability was evaluated by measuring the absorbance at 570 nm by using a microplate spectrophotometer. The IC50 values were obtained by dose-response curves using the GraphPad Prism software (vs. 5).
The MDA-MB-231 and MCF-7 human breast cancer cells were purchased from ATCC. MDA-MB-231 and MCF-7 cells were grown in Dulbecco’s modified Eagles’s medium (DMEM high glucose) (Capricorn Scientific) at 37 °C in 5% CO2 supplemented with 10% fetal bovine serum (Capricorn Scientific). All cells were adherent in monolayers and, upon confluence, were washed with phosphate buffer saline (PBS) and harvested by digestion with Trypsin-EDTA 0.05% (v/v). The cells were suspended and transferred into new, sterile, culture flasks, for maintenance or seeded in sterile test microplates for different assays. All cells were manipulated under aseptic conditions in a flow chamber.
The cells were adherent in monolayers and, upon confluency, were harvested by digestion with trypsin. The cytotoxicity of the complexes against the tumour cells was assessed using the colorimetric assay MTT […], which evaluate the metabolic activity of viable cells. This assay measures the conversion of the yellow tetrazolium into purple formazan by an active mitochondrial dehydrogenase in living cells. For this purpose, cells (10-20 × 10^3 in 200 μL of medium) were seeded into 96-well plates and incubated in a 5% CO2 incubator at 37 °C. The cells were settled for 24 h followed by the addition of a dilution series of the complexes in medium (200 μL). The complexes were first solubilized in 100% DMSO, given a 10 mM stock solution, and then in medium within the concentration range of 0.1–100 µM. […] After 24 h of incubation, the treatment solutions were removed by aspiration, and MTT solution (200 μL, 0.5 mg·mL^-1 in PBS) was added to each well. After 3 h at 37 °C/5% CO2, the solution was removed, and the purple formazan crystals formed inside the cells were dissolved in DMSO (200 μL) by thorough shaking. […]

Data set [7] has as its system normal human fibroblasts (HDF). Description: MTT cytotoxicity assay, normal human dermal fibroblasts. The data set is classed as cell-based. The method, then:
as §1, §2

Sequence of human serum albumin (HSA) (P02768 25-609): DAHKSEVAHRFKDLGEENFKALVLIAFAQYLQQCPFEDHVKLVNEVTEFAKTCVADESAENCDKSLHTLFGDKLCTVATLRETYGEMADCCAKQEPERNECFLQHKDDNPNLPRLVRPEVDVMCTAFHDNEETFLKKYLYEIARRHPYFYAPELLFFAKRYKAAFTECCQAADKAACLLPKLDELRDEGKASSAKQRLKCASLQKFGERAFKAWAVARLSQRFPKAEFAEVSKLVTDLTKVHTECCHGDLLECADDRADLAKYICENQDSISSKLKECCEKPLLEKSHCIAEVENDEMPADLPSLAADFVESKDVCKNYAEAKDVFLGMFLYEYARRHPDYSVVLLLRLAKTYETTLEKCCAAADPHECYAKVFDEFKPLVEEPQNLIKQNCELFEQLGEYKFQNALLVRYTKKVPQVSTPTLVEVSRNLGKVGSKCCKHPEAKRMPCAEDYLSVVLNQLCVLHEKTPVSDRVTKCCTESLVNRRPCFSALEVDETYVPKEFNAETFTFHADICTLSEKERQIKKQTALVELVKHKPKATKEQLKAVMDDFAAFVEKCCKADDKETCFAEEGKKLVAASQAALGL

Regarding `N.N.[Cl][Pt][Cl]` [Cisplatin, cis-[PtCl2(NH3)2]], the IC50 – broadly, the concentration that inhibits the measured activity by half – in data set [1] was > 100000 nM; in data set [2] it was ~100000 nM; in data set [3], 38000 ± 1400 nM.
Take `CN1CN2CN(C)C[P]([Ru+2]([P](c3ccccc3)(c3ccccc3)c3ccccc3)[P](c3ccccc3)(c3ccccc3)c3ccccc3)(C1)C2.O=S(=O)([O-])C(F)(F)F.c1cc[cH-]c1` [Compound 10, [RuCp(dmoPTA)(PPh3)2](CF3SO3)]: the “Emission intensity of Trp214 relative to value in the absence of compound” value in data set [4] (20 µM compound (1:4 HSA:compound), 24 h, λem 340 nm) is ~75%. Further, the Type of quenching entry in data set [4] (HSA-Trp214 fluorescence) is recorded as “Static”. Further, the “Spectral shift of Trp214 emission” value in data set [4] (steady-state emission, 24 h incubation) is “do not induce any spectral shift”. Besides, the “Effect on amplitude-weighted mean fluorescence lifetime of HSA-Trp214” value in data set [4] (time-resolved fluorescence, λem 350 nm) is given as “does not affect”. Moreover, the half-inhibitory concentration (IC50) in data set [5] came out at 400 ± 40 nM; in data set [6] it was 840 ± 90 nM; in data set [7] (24 h incubation, MTT, normal human fibroblasts) it was 1470 ± 400 nM. The “Fold less cytotoxic for fibroblasts (HDF) than for MCF-7 cells” value in data set [7] (selectivity HDF vs MCF-7) is 2-3 fold. Besides, in data set [7] (selectivity HDF vs MDA-MB-231), the “Fold less cytotoxic for fibroblasts (HDF) than for MDA-MB-231 cells” value was found to be 1.5 fold.
